In assay [1] the target is T1, WEE1 kinase enzyme (Homo sapiens, UniProt P30291).
T1 construct: purchased Invitrogen, Life Technologies, Grand Island, N.Y. PR7373A
As to the kind of experiment: WEE1 IC50 determination, LanthaScreen Terbium Labeled TR-FRET kinase assay. It counts as biochemical. To be noted: WEE1 enzyme 1 nM, ATP 10 μM, 1 h. The protocol:
IC50 values of compounds against WEE1 kinase enzyme were determined by LanthaScreen™ Terbium Labeled TR-FRET assay. Kinase assays were performed in 1× kinase buffer (#PV6135, Invitrogen, Life Technologies, Grand Island, N.Y.) where total reaction volume is 10 μL in low-volume 384-well plates (#4511, Corning). Serially diluted compounds (3-fold) were incubated with WEE1 Enzyme (1 nM) (#PR7373A, Invitrogen, Life Technologies, Grand Island, N.Y.) for 10 min; a mixture of ATP (10 μM) (#A1852, Sigma, St. Louis, Mo.) and fluorescent-PolyGT substrate (200 nM) (#PV3610, Invitrogen, Life Technologies, Grand Island, N.Y.) was added and incubated in dark at room temperature for 1 h. After 1 h, 10 μL stop solution containing terbium labeled antibody (4 nM) (#PV3529, Invitrogen, Life Technologies, Grand Island, N.Y.) and EDTA (#E5134, Sigma, St. Louis, Mo.) (20 mM) in TR-FRET dilution buffer (#PV3574, Invitrogen, Life Technologies, Grand Island, N.Y.) was added. Readings were taken in a Synergy Neo plate reader (BioTek, Winooski, Vt.) at single excitation of 340 nm and dual emission at 495 nm and 520 nm respectively.
The % activity of test samples was calculated as (Sample−Min)*100/(Max−Min). [Max: DMSO control, complete reaction with enzyme & DMSO and Min: No enzyme & DMSO]. […]

Assay [2] deals with U-87 MG. As to the kind of experiment: Cytotoxicity assay (resazurin) in U-87 MG cell line. It counts as cell-based. The following applies: Homo sapiens, read-out: U-87 MG IC50. How it is done:
(§1) A427 (HTB-53; ATCC), a lung epithelial cell line, was seeded in medium (MEM, 41090101; Gibco) at a cell count of 1500 cells per 100 μL per well in a 96 well edge plate (167425; ThermoFisher). Cells were allowed to grow at 37° C. for 24 hr in 5% CO2 environment (culture conditions) in a Nuaire incubator (humidified). Serially diluted test compounds (100 μL) within the desired testing concentration ranges were added to the culture plate and the cells further incubated in culture conditions for 72 hr. The experiment was terminated at the designated incubation time by replacing the medium with 100 μL of 1 mM of resazurin (R7017; Sigma) prepared in culture medium, and the plates were further incubated in culture conditions for 4-6 hr. Fluorescence was recorded using a multimodal plate reader (Biotek Synergy Neo) at an excitation wavelength of 535 nm and emission wavelength of 590 nm to obtain relative fluorescence units. Data were analysed as follows: the background fluorescence (blank containing only medium) value was subtracted from each reading and normalized with the vehicle control (DMSO treated cells) to obtain percent survival/proliferation. […] Potency of compounds in other cell lines (such as A549, As-Pc-1, Panc 10.05, A172, U-87 MG) may be determined in an analogous manner.

Assay [3] deals with As-Pc-1. The assay can be described thus: Cytotoxicity assay (resazurin) in As-Pc-1 cell line. The assay is classed as cell-based. The following applies: Homo sapiens, read-out: As-Pc-1 IC50. How it is done:
as §1

2 compounds from US20220162229A1, “HETEROCYCLIC COMPOUNDS AND USES THEREOF” (Nuvation Bio Inc., priority 2019, published 2022) can be followed below.

Structures are written as SMILES. Read-outs that look alike come from different tables or passages of the source.

T1 sequence (P30291 whole entry): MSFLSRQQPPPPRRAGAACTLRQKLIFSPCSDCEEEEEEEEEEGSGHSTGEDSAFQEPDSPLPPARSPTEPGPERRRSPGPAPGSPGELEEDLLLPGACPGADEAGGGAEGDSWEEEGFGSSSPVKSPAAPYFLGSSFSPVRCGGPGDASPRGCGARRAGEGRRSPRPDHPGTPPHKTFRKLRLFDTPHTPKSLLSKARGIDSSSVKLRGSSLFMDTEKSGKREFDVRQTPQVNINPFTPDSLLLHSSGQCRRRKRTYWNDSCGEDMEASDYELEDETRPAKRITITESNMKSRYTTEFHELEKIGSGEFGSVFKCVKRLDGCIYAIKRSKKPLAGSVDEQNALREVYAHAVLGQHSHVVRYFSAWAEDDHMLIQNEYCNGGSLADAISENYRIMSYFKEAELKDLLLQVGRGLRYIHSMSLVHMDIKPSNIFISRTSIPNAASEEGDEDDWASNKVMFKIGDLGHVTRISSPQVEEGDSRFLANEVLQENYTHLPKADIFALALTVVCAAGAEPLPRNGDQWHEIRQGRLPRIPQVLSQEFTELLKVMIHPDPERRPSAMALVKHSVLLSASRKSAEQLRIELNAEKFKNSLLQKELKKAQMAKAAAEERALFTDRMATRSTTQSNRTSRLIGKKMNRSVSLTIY

With `CC1Oc2nc(Nc3ccc4c(c3)CNCC4)ncc2C(=O)N1c1c(Cl)cccc1Cl` (stereo not drawn) [1.44, 3-(2,6-dichlorophenyl)-2-methyl-7-((1,2,3,4-tetrahydroisoquinolin-7-yl)amino)-2,3-dihydro-4H-pyrimido[5,4-e][1,3]oxazin-4-one], the 50% inhibitory concentration (IC50) was determined as 0.133 µM in assay [1]; 11.4 µM in assay [2] (U-87 MG, 72 h); 19.5 µM in assay [3] (ASPC1, 72 h).
Turning to `CC1Oc2nc(Nc3ccc4c(c3)CCNC4(C)C)ncc2C(=O)N1c1c(Cl)cccc1Cl` (stereo not drawn) [1.4, 3-(2,6-dichlorophenyl)-7-((1,1-dimethyl-1,2,3,4-tetrahydroisoquinolin-6-yl)amino)-2-methyl-2,3-dihydro-4H-pyrimido[5,4-e][1,3]oxazin-4-one], the IC50 in assay [1] came out at 0.127 µM; in assay [2] (U-87 MG cells, 72 hr incubation, inhibition of proliferation), 10.9 µM; in assay [3] (ASPC1, As-Pc-1 cells, 72 hr incubation, inhibition of proliferation) it was 8.5 µM.
